Data taken from patent US20070099927A1, “Aminoalkyl-pyrazinones and-pyridones as thrombin inhibitors” (priority 2003, published 2007).

Biological target: thrombin (Homo sapiens, UniProt P00734)
Experiment: Ki determinations thrombin, fluorogenic substrate Tosyl-GPR-AMC
Assay type: biochemical
Details: 20° C., thrombin 100 pM, Tosyl-GPR-AMC 20 μM, HBS pH 7.4; Ki class
Experimental: The Ki determinations were carried out at 20° C. with the fluorogenic substrate Tosyl-GPR-AMC (Bachem, Heidelberg, Germany; λexc=370 nm, λem=450 nm) at a thrombin concentration of 100 pM in HBS pH 7.4. The substrate was added to a final concentration of 20 μM in a total assay volume of 100 μl. The enzymatic reaction was started by addition of substrate. The emission at 450 nm was monitored in 1 minute intervals for 10 minutes using a polarstar reader (BMG Laboratories, Offenburg, Germany). Initial velocities of the control and the inhibited reactions (vo and vi) were estimated in FU/min at different compound concentrations. The inhibition constants were calculated using the Michaelis-Menten equation for competitive inhibition.

Ki | Structure (SMILES)
< 0.005 µM | Cc1cnc(NCC(F)(F)C2CCCCN2)c(=O)n1CCNCc1n[nH]c2ccc(Cl)cc12 (single isomer, unassigned) [85 (E1)]
< 0.005 µM | Cc1cnc(NCCC2CCCCN2C)c(=O)n1CCNCc1n[nH]c2ccc(Cl)cc12 (single isomer, unassigned) [95 (E1), 1-{2-[(5-Chloro-1H-indazol-3-ylmethyl)-amino]-ethyl}-6-methyl-3-[2-(1-methyl-piperidin-2-yl)-ethylamino]-1H-pyrazin-2-one]
< 0.005 µM | Cc1cnc(NCCC2CCCCN2C)c(=O)n1CCNCc1n[nH]c2ccc(Cl)cc12 (single isomer, unassigned) [95 (E2), 1-{2-[(5-Chloro-1H-indazol-3-ylmethyl)-amino]-ethyl}-6-methyl-3-[2-(1-methyl-piperidin-2-yl)-ethylamino]-1H-pyrazin-2-one]
< 0.005 µM | O=c1c(NCCC2CCCCN2)ncc(Cl)n1CCNCc1n[nH]c2ccc(Cl)cc12 (single isomer, unassigned) [101 (E2), 6-Chloro-1-{2-[(5-chloro-1H-indazol-3-ylmethyl)-amino]-ethyl}-3-(2-piperidin-2-yl-ethylamino)-1H-pyrazin-2-one]
0.03 to 0.2 µM | Cc1nc(N)ccc1CNCCn1c(Cl)cnc(NCC(F)(F)c2ccccn2)c1=O [Example 52]
0.03 to 0.2 µM | Cc1cnc(NCCNc2ccccn2)c(=O)n1CCNCc1cccc(Cl)c1 [Example 56]
0.03 to 0.2 µM | Cc1cnc(NC(Cc2ccccc2)C(N)=O)c(=O)n1CCNCCc1cccc(Cl)c1 (stereo not shown) [Example 59]
< 0.005 µM | O=c1c(NCC(F)(F)c2ccccn2)ncc(Cl)n1CCNCc1n[nH]c2ccc(Cl)cc12 [Example 74]
< 0.005 µM | O=c1c(NCC(F)(F)c2cccc[n+]2[O-])ncc(Cl)n1CCNCc1n[nH]c2ccc(Cl)cc12 [Example 82]
< 0.005 µM | O=c1c(NCC(F)(F)c2cccc[n+]2[O-])ncc(Cl)n1CCNCCc1cccc(Cl)c1 [Example 83]
0.005 to 0.03 µM | Cc1nc(N)ccc1CNCCn1c(Cl)cnc(NCC(F)(F)c2cccc[n+]2[O-])c1=O [Example 84]
< 0.005 µM | O=c1c(NCCc2ccccn2)ncc(Cl)n1CCNCc1n[nH]c2ccc(Cl)cc12 [Example 92]
0.005 to 0.03 µM | NC(=O)CN1CCCCC1CCNc1ncc(Cl)n(CCNCc2n[nH]c3ccc(Cl)cc23)c1=O (stereo not shown) [Example 96, 2-{2-[2-(5-Chloro-4-{2-[(5-chloro-1H-indazol-3-ylmethyl)amino]-ethyl}-3-oxo-3,4-dihydro-pyrazin-2-ylamino)-ethyl]-piperidin-1-yl}-acetamide]
< 0.005 µM | O=C(O)CN1CCCCC1CCNc1ncc(Cl)n(CCNCc2n[nH]c3ccc(Cl)cc23)c1=O (stereo not shown) [Example 97, {2-[2-(5-Chloro-4-{2-[(5-chloro-1H-indazol-3-ylmethyl)-amino]-ethyl}-3-oxo-3,4-dihydro-pyrazin-2-ylamino)-ethyl]-piperidin-1-yl}acetic acid]
0.03 to 0.2 µM | Cc1cnc(NCCc2ccccn2)c(=O)n1CCNCCc1nc2ccc(Cl)cc2[nH]1 [Example 99]
0.005 to 0.03 µM | Cc1cnc(NCCC2CCCCN2)c(=O)n1CCNCc1cccc(Cl)c1 (stereo not shown) [Example 102]
